Laboratory results reported in US20260356819A1, “OXOISOINDOLINYL-SUBSTITUTED […] DERIVATIVE AND USE THEREOF” (GLUETACS THERAPEUTICS (SHANGHAI) CO., LTD., priority 2023, published 2026).

What was measured:
Type in all cases: cell-based
Conditions in all cases: compounds at 50 nM and 500 nM
[1] = biological target: T1, WEE1 (Homo sapiens, UniProt P30291+Q96SW2); assay: Western blot degradation of WEE1 in hPBMCs (24 h)
T1 construct: The supernatant was aspirated as the extracted total cell protein; endogenous in cells; host or cells: human peripheral blood mononuclear cells (hPBMCs)
T1 sequence (P30291 whole entry): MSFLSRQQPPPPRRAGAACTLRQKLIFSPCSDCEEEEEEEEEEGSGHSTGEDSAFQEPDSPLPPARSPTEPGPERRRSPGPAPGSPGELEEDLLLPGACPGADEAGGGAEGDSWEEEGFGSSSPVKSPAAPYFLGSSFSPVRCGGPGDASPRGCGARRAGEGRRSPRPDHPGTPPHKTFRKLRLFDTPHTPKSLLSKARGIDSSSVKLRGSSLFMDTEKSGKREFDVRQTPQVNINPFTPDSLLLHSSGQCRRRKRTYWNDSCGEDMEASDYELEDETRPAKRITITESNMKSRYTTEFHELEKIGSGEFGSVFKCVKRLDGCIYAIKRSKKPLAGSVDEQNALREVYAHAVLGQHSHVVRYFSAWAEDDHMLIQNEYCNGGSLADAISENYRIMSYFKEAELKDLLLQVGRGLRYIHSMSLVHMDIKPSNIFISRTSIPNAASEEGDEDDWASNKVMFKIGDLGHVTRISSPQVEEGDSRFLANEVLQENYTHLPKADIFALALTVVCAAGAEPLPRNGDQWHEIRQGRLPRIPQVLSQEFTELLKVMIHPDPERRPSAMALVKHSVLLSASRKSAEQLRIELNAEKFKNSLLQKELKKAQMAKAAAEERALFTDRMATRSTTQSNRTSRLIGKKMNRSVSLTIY
T1 sequence (Q96SW2 whole entry): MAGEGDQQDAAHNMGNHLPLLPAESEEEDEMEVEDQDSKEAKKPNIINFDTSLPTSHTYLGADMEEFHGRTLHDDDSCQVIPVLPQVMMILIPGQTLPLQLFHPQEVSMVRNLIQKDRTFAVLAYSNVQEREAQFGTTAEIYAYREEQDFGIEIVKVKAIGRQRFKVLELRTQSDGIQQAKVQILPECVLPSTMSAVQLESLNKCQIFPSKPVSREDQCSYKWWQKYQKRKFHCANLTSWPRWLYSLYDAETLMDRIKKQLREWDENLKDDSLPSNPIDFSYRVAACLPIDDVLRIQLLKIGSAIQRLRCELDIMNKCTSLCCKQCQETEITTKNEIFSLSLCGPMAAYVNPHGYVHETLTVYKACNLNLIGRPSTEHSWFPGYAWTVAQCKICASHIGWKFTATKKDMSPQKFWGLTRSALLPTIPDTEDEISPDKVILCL
T1 sequence (Q16531 whole entry partner): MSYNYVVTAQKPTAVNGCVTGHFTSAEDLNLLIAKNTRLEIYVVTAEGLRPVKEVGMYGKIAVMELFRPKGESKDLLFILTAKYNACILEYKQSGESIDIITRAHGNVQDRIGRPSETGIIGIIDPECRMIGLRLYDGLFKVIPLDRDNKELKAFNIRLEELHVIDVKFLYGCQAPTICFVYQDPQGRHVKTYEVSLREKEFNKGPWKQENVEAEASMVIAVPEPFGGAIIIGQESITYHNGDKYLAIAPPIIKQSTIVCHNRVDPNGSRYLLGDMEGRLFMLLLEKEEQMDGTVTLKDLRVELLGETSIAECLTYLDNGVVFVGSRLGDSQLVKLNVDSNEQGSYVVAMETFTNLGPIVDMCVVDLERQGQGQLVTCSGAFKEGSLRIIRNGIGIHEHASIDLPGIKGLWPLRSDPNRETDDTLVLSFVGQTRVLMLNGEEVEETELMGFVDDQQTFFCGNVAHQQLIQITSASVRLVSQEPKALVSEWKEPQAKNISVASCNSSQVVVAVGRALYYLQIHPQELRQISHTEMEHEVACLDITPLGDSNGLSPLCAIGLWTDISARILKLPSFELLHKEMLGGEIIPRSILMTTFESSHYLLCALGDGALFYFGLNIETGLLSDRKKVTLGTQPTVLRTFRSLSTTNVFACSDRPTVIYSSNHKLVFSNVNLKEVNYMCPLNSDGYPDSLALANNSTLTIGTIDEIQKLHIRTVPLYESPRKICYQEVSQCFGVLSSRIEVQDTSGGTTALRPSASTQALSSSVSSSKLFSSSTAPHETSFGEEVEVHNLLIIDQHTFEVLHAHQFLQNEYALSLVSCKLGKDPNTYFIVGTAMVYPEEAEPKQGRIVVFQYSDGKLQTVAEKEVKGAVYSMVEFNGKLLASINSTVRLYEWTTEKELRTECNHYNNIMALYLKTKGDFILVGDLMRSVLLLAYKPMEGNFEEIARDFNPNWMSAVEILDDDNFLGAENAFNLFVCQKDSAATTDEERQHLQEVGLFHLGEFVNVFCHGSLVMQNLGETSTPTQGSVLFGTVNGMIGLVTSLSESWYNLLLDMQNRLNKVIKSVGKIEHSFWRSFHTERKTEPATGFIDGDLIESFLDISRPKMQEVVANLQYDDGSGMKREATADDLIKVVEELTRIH
Procedure, shortened: (§1)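 Degradation in primary human PBMCs after 24 h compound exposure at 50 and 500 nM. Western blot band intensities, normalised to an internal control protein, expressed as % protein remaining relative to DMSO.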

[2] = biological target: T2, IKZF1 (Homo sapiens, UniProt Q13422+Q96SW2); assay: Western blot degradation of IKZF1 in hPBMCs (24 h)
T2 construct: The supernatant was aspirated as the extracted total cell protein; endogenous in cells; host or cells: human peripheral blood mononuclear cells (hPBMCs)
Procedure, shortened: as §1

[3] = biological target: T3, IKZF2 (Homo sapiens, UniProt Q96SW2+Q9UKS7); assay: Western blot degradation of IKZF2 in hPBMCs (24 h)
T3 construct: The supernatant was aspirated as the extracted total cell protein; endogenous in cells; host or cells: human peripheral blood mononuclear cells (hPBMCs)
T3 sequence (Q9UKS7 whole entry): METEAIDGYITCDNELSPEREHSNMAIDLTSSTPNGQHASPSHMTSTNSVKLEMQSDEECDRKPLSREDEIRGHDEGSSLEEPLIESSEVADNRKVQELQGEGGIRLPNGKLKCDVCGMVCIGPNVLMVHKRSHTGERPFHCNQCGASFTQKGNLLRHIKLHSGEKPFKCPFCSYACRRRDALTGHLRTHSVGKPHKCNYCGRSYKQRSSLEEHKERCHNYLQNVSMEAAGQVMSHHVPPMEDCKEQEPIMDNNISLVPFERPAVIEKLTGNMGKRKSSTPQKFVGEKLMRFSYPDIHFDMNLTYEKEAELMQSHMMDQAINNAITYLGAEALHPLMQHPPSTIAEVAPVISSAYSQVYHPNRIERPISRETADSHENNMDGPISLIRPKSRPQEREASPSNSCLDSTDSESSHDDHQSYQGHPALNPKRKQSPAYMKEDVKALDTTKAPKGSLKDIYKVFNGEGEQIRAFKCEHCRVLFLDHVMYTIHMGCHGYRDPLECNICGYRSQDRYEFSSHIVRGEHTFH
T3 sequence (Q96SW2 whole entry): as the sequence (Q96SW2 whole entry) above
T3 sequence (Q16531 whole entry partner): as the sequence (Q16531 whole entry partner) above
Procedure, shortened: as §1

[4] = biological target: T4, IKZF3 (Homo sapiens, UniProt Q96SW2+Q9UKT9); assay: Western blot degradation of IKZF3 in hPBMCs (24 h)
T4 construct: The supernatant was aspirated as the extracted total cell protein; endogenous in cells; host or cells: human peripheral blood mononuclear cells (hPBMCs)
T4 sequence (Q9UKT9 whole entry): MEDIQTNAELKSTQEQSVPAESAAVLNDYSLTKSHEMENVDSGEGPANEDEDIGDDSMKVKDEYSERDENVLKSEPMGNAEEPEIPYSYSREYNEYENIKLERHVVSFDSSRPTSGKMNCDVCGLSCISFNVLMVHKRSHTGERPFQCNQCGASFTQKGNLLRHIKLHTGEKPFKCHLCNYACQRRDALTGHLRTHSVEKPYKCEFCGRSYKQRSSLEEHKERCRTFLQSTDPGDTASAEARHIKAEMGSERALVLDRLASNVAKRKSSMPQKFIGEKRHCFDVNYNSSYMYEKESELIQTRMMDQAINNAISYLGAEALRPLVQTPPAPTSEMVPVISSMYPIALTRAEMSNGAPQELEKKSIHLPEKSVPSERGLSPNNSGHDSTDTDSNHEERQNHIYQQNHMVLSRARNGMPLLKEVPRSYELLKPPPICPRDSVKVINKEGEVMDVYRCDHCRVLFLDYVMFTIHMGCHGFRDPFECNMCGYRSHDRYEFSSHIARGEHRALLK
T4 sequence (Q96SW2 whole entry): as the sequence (Q96SW2 whole entry) above
T4 sequence (Q16531 whole entry partner): as the sequence (Q16531 whole entry partner) above
Procedure, shortened: as §1

[5] = biological target: T5, CK1α (Homo sapiens, UniProt P48729+Q96SW2); assay: Western blot degradation of CK1α in hPBMCs (24 h)
T5 construct: The supernatant was aspirated as the extracted total cell protein; endogenous in cells; host or cells: human peripheral blood mononuclear cells (hPBMCs)
T5 sequence (P48729 whole entry): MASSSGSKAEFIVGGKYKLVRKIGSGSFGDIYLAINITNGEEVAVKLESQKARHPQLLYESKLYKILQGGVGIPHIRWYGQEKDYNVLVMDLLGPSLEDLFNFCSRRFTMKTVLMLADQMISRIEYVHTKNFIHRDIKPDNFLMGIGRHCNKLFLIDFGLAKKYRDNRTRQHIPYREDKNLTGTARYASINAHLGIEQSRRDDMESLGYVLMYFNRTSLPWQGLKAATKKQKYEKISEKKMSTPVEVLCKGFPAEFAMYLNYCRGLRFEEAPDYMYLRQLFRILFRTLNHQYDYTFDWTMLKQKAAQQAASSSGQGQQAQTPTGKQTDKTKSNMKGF
T5 sequence (Q96SW2 whole entry): as the sequence (Q96SW2 whole entry) above
T5 sequence (Q16531 whole entry partner): as the sequence (Q16531 whole entry partner) above
Procedure, shortened: as §1

[6] = biological target: T6, GSPT1 (Homo sapiens, UniProt P15170+Q96SW2); assay: Western blot degradation of GSPT1 in hPBMCs (24 h)
T6 construct: The supernatant was aspirated as the extracted total cell protein; endogenous in cells; host or cells: human peripheral blood mononuclear cells (hPBMCs)
T6 sequence (P15170 whole entry): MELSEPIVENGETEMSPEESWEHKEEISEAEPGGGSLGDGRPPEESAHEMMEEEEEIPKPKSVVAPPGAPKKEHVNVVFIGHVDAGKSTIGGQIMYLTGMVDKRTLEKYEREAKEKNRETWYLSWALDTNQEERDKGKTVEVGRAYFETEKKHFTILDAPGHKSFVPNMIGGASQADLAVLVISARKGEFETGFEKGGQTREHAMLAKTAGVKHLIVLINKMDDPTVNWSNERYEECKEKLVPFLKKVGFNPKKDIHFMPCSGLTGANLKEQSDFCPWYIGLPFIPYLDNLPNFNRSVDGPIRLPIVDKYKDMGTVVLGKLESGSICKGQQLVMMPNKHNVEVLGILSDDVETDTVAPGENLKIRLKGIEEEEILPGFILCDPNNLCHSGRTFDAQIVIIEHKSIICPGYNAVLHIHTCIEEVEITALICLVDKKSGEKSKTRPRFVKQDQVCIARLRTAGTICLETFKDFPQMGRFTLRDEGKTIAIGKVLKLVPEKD
T6 sequence (Q96SW2 whole entry): as the sequence (Q96SW2 whole entry) above
T6 sequence (Q16531 whole entry partner): as the sequence (Q16531 whole entry partner) above
Procedure, shortened: as §1

## O=C1CCN(N2Cc3cc(CN4CCN(c5c(F)cccc5F)CC4)ccc3C2=O)C(=O)N1 [GT-06780, 1-(5-((4-(2,6-difluorophenyl)piperazin-1-yl)methyl)-1-oxoisoindolin-2-yl)dihydropyrimidine-2,4(1H,3H)-dione]
[1]
  WEE1 substrate protein remaining %: B (80%< substrate protein remaining % ≤100%)
[2]
  IKZF1 substrate protein remaining %: B (80%< substrate protein remaining % ≤100%)
[3]
  IKZF2 substrate protein remaining %: B (80%< substrate protein remaining % ≤100%)
[4]
  IKZF3 substrate protein remaining %: B (80%< substrate protein remaining % ≤100%)
[5]
  CK1α substrate protein remaining %: A (0% ≤ substrate protein remaining % ≤80%)
[6]
  GSPT1 substrate protein remaining %: B (80%< substrate protein remaining % ≤100%)

## O=C1CCN(N2Cc3cc(CN4CCN(c5ccc(F)c(F)c5)CC4)ccc3C2=O)C(=O)N1 [GT-06781, 1-(5-((4-(3,4-difluorophenyl)piperazin-1-yl)methyl)-1-oxoisoindolin-2-yl)dihydropyrimidine-2,4(1H,3H)-dione]
[1]
  WEE1 substrate protein remaining %: B (80%< substrate protein remaining % ≤100%)
[2]
  IKZF1 substrate protein remaining %: B (80%< substrate protein remaining % ≤100%)
[3]
  IKZF2 substrate protein remaining %: B (80%< substrate protein remaining % ≤100%)
[4]
  IKZF3 substrate protein remaining %: B (80%< substrate protein remaining % ≤100%)
[5]
  CK1α substrate protein remaining %: A (0% ≤ substrate protein remaining % ≤80%)
[6]
  GSPT1 substrate protein remaining %: A (0% ≤ substrate protein remaining % ≤80%)

## O=C1CCN(N2Cc3cc(CN4CCN(c5cc(F)cc(F)c5)CC4)ccc3C2=O)C(=O)N1 [GT-06782, 1-(5-((4-(3,5-difluorophenyl)piperazin-1-yl)methyl)-1-oxoisoindolin-2-yl)dihydropyrimidine-2,4(1H,3H)-dione]
[1]
  WEE1 substrate protein remaining %: B (80%< substrate protein remaining % ≤100%)
[2]
  IKZF1 substrate protein remaining %: B (80%< substrate protein remaining % ≤100%)
[3]
  IKZF2 substrate protein remaining %: B (80%< substrate protein remaining % ≤100%)
[4]
  IKZF3 substrate protein remaining %: B (80%< substrate protein remaining % ≤100%)
[5]
  CK1α substrate protein remaining %: A (0% ≤ substrate protein remaining % ≤80%)
[6]
  GSPT1 substrate protein remaining %: A (0% ≤ substrate protein remaining % ≤80%)

## O=C1CCN(N2C(=O)c3ccc(CN4CCN(c5ccc(Cl)cc5)CC4)cc3C2=O)C(=O)N1 [GT-06783, 5-((4-(4-chlorophenyl)piperazin-1-yl)methyl)-2-(2,4-dioxotetrahydropyrimidin-1(2H)-yl)isoindoline-1,3-dione]
[1]
  WEE1 substrate protein remaining %: B (80%< substrate protein remaining % ≤100%)
[2]
  IKZF1 substrate protein remaining %: B (80%< substrate protein remaining % ≤100%)
[3]
  IKZF2 substrate protein remaining %: B (80%< substrate protein remaining % ≤100%)
[4]
  IKZF3 substrate protein remaining %: A (0% ≤ substrate protein remaining % ≤80%)
[5]
  CK1α substrate protein remaining %: B (80%< substrate protein remaining % ≤100%)
[6]
  GSPT1 substrate protein remaining %: B (80%< substrate protein remaining % ≤100%)

## O=C1CCN(N2C(=O)c3ccc(CN4CCN(c5ccc(Br)cc5)CC4)cc3C2=O)C(=O)N1 [GT-06784, 5-((4-(4-bromophenyl)piperazin-1-yl)methyl)-2-(2,4-dioxotetrahydropyrimidin-1(2H)-yl)isoindoline-1,3-dione]
[1]
  WEE1 substrate protein remaining %: B (80%< substrate protein remaining % ≤100%)
[2]
  IKZF1 substrate protein remaining %: B (80%< substrate protein remaining % ≤100%)
[3]
  IKZF2 substrate protein remaining %: B (80%< substrate protein remaining % ≤100%)
[4]
  IKZF3 substrate protein remaining %: B (80%< substrate protein remaining % ≤100%)
[5]
  CK1α substrate protein remaining %: A (0% ≤ substrate protein remaining % ≤80%)
[6]
  GSPT1 substrate protein remaining %: B (80%< substrate protein remaining % ≤100%)

## O=C1CCN(N2C(=O)c3ccc(CN4CCN(c5cccc(F)c5F)CC4)cc3C2=O)C(=O)N1 [GT-06793, 5-((4-(2,3-difluorophenyl)piperazin-1-yl)methyl)-2-(2,4-dioxotetrahydropyrimidin-1(2H)-yl)isoindoline-1,3-dione]
[1]
  WEE1 substrate protein remaining %: B (80%< substrate protein remaining % ≤100%)
[2]
  IKZF1 substrate protein remaining %: B (80%< substrate protein remaining % ≤100%)
[3]
  IKZF2 substrate protein remaining %: A (0% ≤ substrate protein remaining % ≤80%)
[4]
  IKZF3 substrate protein remaining %: B (80%< substrate protein remaining % ≤100%)
[5]
  CK1α substrate protein remaining %: B (80%< substrate protein remaining % ≤100%)
[6]
  GSPT1 substrate protein remaining %: B (80%< substrate protein remaining % ≤100%)

## O=C1CCN(N2C(=O)c3ccc(CN4CCN(c5c(F)cccc5F)CC4)cc3C2=O)C(=O)N1 [GT-06796, 5-((4-(2,6-difluorophenyl)piperazin-1-yl)methyl)-2-(2,4-dioxotetrahydropyrimidin-1(2H)-yl)isoindoline-1,3-dione]
[1]
  WEE1 substrate protein remaining %: A (0% ≤ substrate protein remaining % ≤80%)
[2]
  IKZF1 substrate protein remaining %: B (80%< substrate protein remaining % ≤100%)
[3]
  IKZF2 substrate protein remaining %: B (80%< substrate protein remaining % ≤100%)
[4]
  IKZF3 substrate protein remaining %: B (80%< substrate protein remaining % ≤100%)
[5]
  CK1α substrate protein remaining %: B (80%< substrate protein remaining % ≤100%)
[6]
  GSPT1 substrate protein remaining %: B (80%< substrate protein remaining % ≤100%)

## O=C1CCN(N2C(=O)c3ccc(CN4CCN(c5ccc(F)c(F)c5)CC4)cc3C2=O)C(=O)N1 [GT-06797, 5-((4-(3,4-difluorophenyl)piperazin-1-yl)methyl)-2-(2,4-dioxotetrahydropyrimidin-1(2H)-yl)isoindoline-1,3-dione]
[1]
  WEE1 substrate protein remaining %: A (0% ≤ substrate protein remaining % ≤80%)
[2]
  IKZF1 substrate protein remaining %: B (80%< substrate protein remaining % ≤100%)
[3]
  IKZF2 substrate protein remaining %: B (80%< substrate protein remaining % ≤100%)
[4]
  IKZF3 substrate protein remaining %: B (80%< substrate protein remaining % ≤100%)
[5]
  CK1α substrate protein remaining %: B (80%< substrate protein remaining % ≤100%)
[6]
  GSPT1 substrate protein remaining %: B (80%< substrate protein remaining % ≤100%)

## O=C1CCN(N2C(=O)c3ccc(CN4CCC(c5ccccc5)CC4)cc3C2=O)C(=O)N1 [GT-06803, 2-(2,4-dioxotetrahydropyrimidin-1(2H)-yl)-5-((4-phenylpiperidin-1-yl)methyl)isoindoline-1,3-dione]
[1]
  WEE1 substrate protein remaining %: B (80%< substrate protein remaining % ≤100%)
[2]
  IKZF1 substrate protein remaining %: B (80%< substrate protein remaining % ≤100%)
[3]
  IKZF2 substrate protein remaining %: B (80%< substrate protein remaining % ≤100%)
[4]
  IKZF3 substrate protein remaining %: B (80%< substrate protein remaining % ≤100%)
[5]
  CK1α substrate protein remaining %: A (0% ≤ substrate protein remaining % ≤80%)
[6]
  GSPT1 substrate protein remaining %: B (80%< substrate protein remaining % ≤100%)

## O=C1CCN(N2C(=O)c3ccc(CN4CCC(c5cccc(Br)c5)CC4)cc3C2=O)C(=O)N1 [GT-06804, 5-((4-(3-bromophenyl)piperidin-1-yl)methyl)-2-(2,4-dioxotetrahydropyrimidin-1(2H)-yl)isoindoline-1,3-dione]
[1]
  WEE1 substrate protein remaining %: B (80%< substrate protein remaining % ≤100%)
[2]
  IKZF1 substrate protein remaining %: B (80%< substrate protein remaining % ≤100%)
[3]
  IKZF2 substrate protein remaining %: B (80%< substrate protein remaining % ≤100%)
[4]
  IKZF3 substrate protein remaining %: B (80%< substrate protein remaining % ≤100%)
[5]
  CK1α substrate protein remaining %: A (0% ≤ substrate protein remaining % ≤80%)
[6]
  GSPT1 substrate protein remaining %: B (80%< substrate protein remaining % ≤100%)

## O=C1CCN(N2C(=O)c3ccc(CN4CCC(c5ccc(Br)cc5)CC4)cc3C2=O)C(=O)N1 [GT-06805, 5-((4-(4-bromophenyl)piperidin-1-yl)methyl)-2-(2,4-dioxotetrahydropyrimidin-1(2H)-yl)isoindoline-1,3-dione]
[1]
  WEE1 substrate protein remaining %: B (80%< substrate protein remaining % ≤100%)
[2]
  IKZF1 substrate protein remaining %: B (80%< substrate protein remaining % ≤100%)
[3]
  IKZF2 substrate protein remaining %: B (80%< substrate protein remaining % ≤100%)
[4]
  IKZF3 substrate protein remaining %: B (80%< substrate protein remaining % ≤100%)
[5]
  CK1α substrate protein remaining %: A (0% ≤ substrate protein remaining % ≤80%)
[6]
  GSPT1 substrate protein remaining %: B (80%< substrate protein remaining % ≤100%)

## O=C1CCN(N2C(=O)c3ccc(CN4CCC(c5ccccc5F)CC4)cc3C2=O)C(=O)N1 [GT-06877, 2-(2,4-dioxotetrahydropyrimidin-1(2H)-yl)-5-((4-(2-fluorophenyl)piperidin-1-yl)methyl)isoindoline-1,3-dione]
[1]
  WEE1 substrate protein remaining %: B (80%< substrate protein remaining % ≤100%)
[2]
  IKZF1 substrate protein remaining %: B (80%< substrate protein remaining % ≤100%)
[3]
  IKZF2 substrate protein remaining %: B (80%< substrate protein remaining % ≤100%)
[4]
  IKZF3 substrate protein remaining %: B (80%< substrate protein remaining % ≤100%)
[5]
  CK1α substrate protein remaining %: A (0% ≤ substrate protein remaining % ≤80%)
[6]
  GSPT1 substrate protein remaining %: B (80%< substrate protein remaining % ≤100%)

## O=C1CCN(N2C(=O)c3ccc(CN4CCC(c5ccc(F)cc5)CC4)cc3C2=O)C(=O)N1 [GT-06878, 2-(2,4-dioxotetrahydropyrimidin-1(2H)-yl)-5-((4-(4-fluorophenyl)piperidin-1-yl)methyl)isoindoline-1,3-dione]
[1]
  WEE1 substrate protein remaining %: B (80%< substrate protein remaining % ≤100%)
[2]
  IKZF1 substrate protein remaining %: B (80%< substrate protein remaining % ≤100%)
[3]
  IKZF2 substrate protein remaining %: B (80%< substrate protein remaining % ≤100%)
[4]
  IKZF3 substrate protein remaining %: B (80%< substrate protein remaining % ≤100%)
[5]
  CK1α substrate protein remaining %: A (0% ≤ substrate protein remaining % ≤80%)
[6]
  GSPT1 substrate protein remaining %: A (0% ≤ substrate protein remaining % ≤80%)
